Experimental data reported in PubChem BioAssay (NCI).
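Protocol summary: plate cells (96-well), add compound at 5 concentrations, incubate 48 h, interpolate endpoints linearly. GI50 is the concentration that inhibits growth by half. The concentration for full growth arrest is given as TGI.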

Experiments:
Assay in all cases: DTP human tumour cell line panel, 48 h
IGROV1 ovarian = test system: IGROV1 ovarian
786-0 renal = test system: 786-0 renal
NCI/ADR-RES ovarian = test system: NCI/ADR-RES ovarian
CAKI-1 renal = test system: CAKI-1 renal
NCI-H460 lung = test system: NCI-H460 lung
UACC-62 melanoma = test system: UACC-62 melanoma
RXF 393 renal = test system: RXF 393 renal
NCI-H23 lung = test system: NCI-H23 lung
M14 melanoma = test system: M14 melanoma
SW-620 colon = test system: SW-620 colon
HCT-15 colon = test system: HCT-15 colon

| SMILES | TGI (IGROV1 ovarian) | TGI (786-0 renal) | TGI (NCI/ADR-RES ovarian) | TGI (CAKI-1 renal) | TGI (NCI-H460 lung) | TGI (UACC-62 melanoma) | TGI (RXF 393 renal) | TGI (NCI-H23 lung) | TGI (M14 melanoma) | TGI (SW-620 colon) | TGI (HCT-15 colon) | GI50 (CAKI-1 renal) | GI50 (NCI-H23 lung) | GI50 (HCT-15 colon) |
| --- | --- | --- | --- | --- | --- | --- | --- | --- | --- | --- | --- | --- | --- | --- |
| N#CC(C#N)=Cn1c(=S)[nH]c2ccc([N+](=O)[O-])cc21 | > 100 µM | > 100 µM | > 100 µM | > 100 µM | > 100 µM | > 100 µM | > 100 µM | > 100 µM | > 100 µM | > 100 µM |  |  |  |  |
| O=C(NCCN(CCNC(=O)c1cccc(=O)n1O)CCNC(=O)c1cccc(=O)n1O)c1cccc(=O)n1O | > 100 µM |  | > 100 µM | > 100 µM | > 100 µM | > 100 µM | > 100 µM | > 100 µM | > 100 µM | > 100 µM | > 100 µM |  |  |  |
| NC(=O)NC(=O)c1cccc(NC(=O)CCl)c1 | 12.7 µM | 3.91 µM | 12 µM | 6 µM | 3.92 µM | 2.63 µM | 4.3 µM | 8.14 µM |  | 18.9 µM | 9.73 µM |  |  |  |
| Cc1ccc(O)c(C(c2cc(C)ccc2O)c2cc([N+](=O)[O-])ccc2O)c1 | 24.4 µM | 33.9 µM | 66.8 µM | 24.8 µM |  | 36.6 µM | 54 µM | 28.9 µM | 24.5 µM | 67 µM | 36.1 µM |  |  |  |
| CCOC(=O)C1=NNC(C(=O)c2ccccc2)C1c1ccccc1 (stereo unspecified) | > 34 µM | 6.3 µM | 12.3 µM | 3.25 µM |  | 8.63 µM | 3.78 µM | 6.17 µM | 3.75 µM | 3.48 µM | 5.94 µM |  |  |  |
| CN1CCN(Cc2ccccc2)CC1CC#N (stereo unspecified) | > 100 µM | > 100 µM | > 100 µM | > 100 µM | > 100 µM | > 100 µM | > 100 µM | > 100 µM |  | > 100 µM | > 100 µM |  |  |  |
| c1cc2c3ccsc3c3sccc3c2s1 | > 100 µM | > 100 µM | > 100 µM | > 100 µM | > 100 µM | > 100 µM | > 100 µM | > 100 µM | > 100 µM | > 100 µM | > 100 µM |  |  |  |
| O=C1c2c(O)cccc2Cc2cc(CO)cc(O)c21 | 20.1 µM | 11.4 µM | 15.1 µM |  | 8.04 µM |  |  | 6.06 µM | 10.9 µM | > 100 µM | 11.3 µM |  |  |  |
| O=C(NC(CCCCN1C(=O)c2ccccc2C1=O)P(=O)(Oc1ccccc1)Oc1ccccc1)OCc1ccccc1 (stereo unspecified) | > 100 µM | > 100 µM | > 100 µM | > 100 µM | > 100 µM | > 100 µM | > 100 µM | > 100 µM | > 100 µM | > 100 µM |  |  |  |  |
| CCOC(=O)CCc1ccc(NC(=O)/C=C/c2ccc([N+](=O)[O-])o2)cc1 | > 31.1 µM | 1.72 µM | 5.37 µM | 6.54 µM | 4.78 µM | > 20.5 µM | 2.75 µM | 3.33 µM | 2.43 µM | 2.31 µM | 4.05 µM |  |  |  |
| CCOC(=O)c1csc(-c2cn(C)c3c2C(=O)C(OC)=CC3=O)n1 | > 100 µM | > 100 µM | > 100 µM | > 100 µM | > 41.6 µM | > 59 µM | 71.8 µM | > 56.7 µM | 63.3 µM | > 100 µM | > 100 µM |  |  |  |
| Cc1cc(S(=O)(=O)NC2=NCC(C)(C)CN2)c(S)cc1Cl | > 100 µM | > 100 µM | > 100 µM | > 100 µM | > 100 µM | 61.9 µM | > 100 µM |  | > 100 µM | 36.8 µM | > 100 µM |  |  |  |
| COC1OC(Cn2cc([N+](=O)[O-])nc2C)C(O)C(O)C1O (stereo unspecified) | > 100 µM | > 100 µM | > 100 µM | > 100 µM | > 100 µM | > 100 µM | > 100 µM | > 100 µM | > 100 µM | > 100 µM | > 100 µM |  |  |  |
| CCCCCCCCCCCCCCCCCCOCC(O)CO (stereo unspecified) | > 23.7 µM |  | > 25 µM | > 5.39 µM | > 23 µM | > 25 µM | > 24.1 µM | > 25 µM |  | > 17 µM | > 25 µM |  |  |  |
| Cc1nn(C(=O)c2ccc(Cl)cc2)c2c1C(c1ccc(Cl)cc1)SC(N)=N2 (stereo unspecified) | > 10 µM | > 10 µM | > 10 µM | > 10 µM | > 10 µM | > 10 µM | > 10 µM | > 10 µM | > 10 µM | > 10 µM | > 10 µM |  |  |  |
| COc1ccc2[nH]c3c(O)c(-c4c(C)cc5c([nH]c6ccc(OC)cc65)c4O)c(C)cc3c2c1 | 8.04 µM | 8.62 µM | 8.13 µM | 8.39 µM | 7.52 µM |  | 8.82 µM | 8.38 µM | 7.99 µM | 10.3 µM | 8.2 µM | 4.27 µM | 4.48 µM | 4.2 µM |
| CCCC(C(=O)Nc1cccc2[nH]cnc12)C(=O)OCC (stereo unspecified) | > 100 µM | > 100 µM | > 100 µM |  | > 100 µM | > 100 µM |  |  | > 100 µM | > 100 µM | > 100 µM |  |  |  |
| COc1ccc(NC(=O)NNS(=O)(=O)c2ccc(C)cc2)cc1 | > 100 µM | > 100 µM | > 100 µM | > 100 µM | > 100 µM | > 100 µM | > 100 µM | > 100 µM | > 100 µM | > 100 µM | > 100 µM |  |  |  |
| CC(=O)N1N=C(c2ccc3ccccc3c2O)CC1c1ccc(N(C)C)cc1 (stereo unspecified) | > 100 µM | > 100 µM | > 100 µM | > 100 µM | > 100 µM | > 100 µM | > 100 µM | > 100 µM | > 100 µM | > 100 µM | > 100 µM |  |  |  |
| COC(=O)[C@H](C)N(C)C(=O)[C@H](C)N1[C@@H](c2ccccc2)COC1(C)C | > 100 µM | > 100 µM | > 100 µM | > 100 µM | > 100 µM | > 100 µM | > 100 µM | > 100 µM | > 100 µM | > 100 µM | > 100 µM |  |  |  |
| Cc1cnc2[nH]c(-c3ccc(Cl)cc3)cc(=O)c2c1 | > 100 µM | > 100 µM | > 26.3 µM | > 55.6 µM | > 100 µM | > 100 µM |  | > 100 µM | > 100 µM | > 100 µM | > 40.8 µM |  |  |  |
